For this test, the system named is insulin-degradation enzyme (IDE). Put plainly: Insulin-Au NC fluorescence in mouse brain homogenate (IDE degradation and inhibition). Format: biochemical. Conditions: inhibitor 0.01 to 1 mM pre-incubated 30 min with brain homogenate. The procedure:
In addition, ten-week-old C57BL/6J male mice were well-anesthetized by i.p. injection of pentobarbital (75 mg/kg), and then the brain was removed and homogenated in PBS. The homogenate was then centrifuged at 6,000×g for 20 min and the supernatant was collected for the preparation of further experiments.
0.01, 0.1, and 1 mM doses of thiorphan or racecadotril, which was known as inhibiting agents for insulin-degradation enzyme (IDE), were co-incubated with the brain homogenates for 30 min, and then 10 μg/ml insulin-Au NCs was added and incubated with brain homogenates for 1 hour at 37° C. The detection of the insulin-Au NCs was determined by 450 nm and 650 nm of the emission excitation wavelength, respectively.

Each structure is given as a SMILES string.

In the case of `CC(=O)SCC(Cc1ccccc1)C(=O)NCC(=O)OCc1ccccc1` (centres unmarked) [racecadotril], the “recovery of 670 nm emission (IDE inhibition)” value was “signal recovery was increased”.

Consider `O=C(O)CNC(=O)C(CS)Cc1ccccc1` (centres unmarked) [thiorphan], for which the “recovery of 670 nm emission (IDE inhibition)” value is given as “signal recovery was increased”.
